# Source: US20220281848A1, “PYRAZOLE-SUBSTITUTED PYRROLIDINONES AS HERBICIDES” (FMC Corporation, priority 2019, published 2022)
# System: plants
# Test: Test D pre-emergence, other plants of Tables D1 and D3
# Type: in vivo
# Settings: for damage to plant (100=total damage to plant; 0=no damage to plant), SORVU: preemergent, 20 DAA; for damage to plant, ALOMY / damage to plant, AVEFA / damage to plant, BEAVA / damage to plant, BROTE / damage to plant, BRSNN / damage to plant, CHEAL / damage to plant, GALAP / damage to plant, HORVW / damage to plant, KCHSC / damage to plant, LOLPE / damage to plant, POAAN / damage to plant, POLCO / damage to plant, SINAR / damage to plant, STEME / damage to plant, VERPE: pre-emergence, 100=total damage, 0=no damage
# Summary of the method: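 Seeds treated with herbicide safener; sown in soil; glasshouse, 16 h light, 65% humidity. Sprayed day 1 (pre) or ~day 12 (post). Spray in 0.2% v/v adjuvant. Scored 0–100 damage: 20 DAA pre, 15 d post.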
smiles,measurement,setting,value
CCn1nc([C@@H]2CN(C)C(=O)[C@H]2C(=O)Nc2cccc(F)c2F)c2cccc(F)c21 [Compound 14],"damage to plant (100=total damage to plant; 0=no damage to plant), SORVU",rate 130,0
same,"damage to plant (100=total damage to plant; 0=no damage to plant), SORVU",rate 250,0
same,"damage to plant (100=total damage to plant; 0=no damage to plant), SORVU",rate 500,30
same,"damage to plant, ALOMY","rate 15, 20 DAA",0
same,"damage to plant, AVEFA","rate 15, 20 DAA",0
same,"damage to plant, BEAVA","rate 15, 20 DAA",0
same,"damage to plant, BROTE","rate 15, 20 DAA",0
same,"damage to plant, BRSNN","rate 15, 20 DAA",0
same,"damage to plant, CHEAL","rate 15, 20 DAA",0
same,"damage to plant, GALAP","rate 15, 20 DAA",0
same,"damage to plant, HORVW","rate 15, 20 DAA",0
same,"damage to plant, KCHSC","rate 15, 20 DAA",0
same,"damage to plant, LOLPE","rate 15, 20 DAA",0
same,"damage to plant, POAAN","rate 15, 20 DAA",0
same,"damage to plant, POLCO","rate 15, 20 DAA",0
same,"damage to plant, SINAR","rate 15, 20 DAA",0
same,"damage to plant, STEME","rate 15, 20 DAA",0
same,"damage to plant, VERPE","rate 15, 20 DAA",0
same,"damage to plant, ALOMY","rate 30, 20 DAA",0
same,"damage to plant, AVEFA","rate 30, 20 DAA",0
same,"damage to plant, BEAVA","rate 30, 20 DAA",0
same,"damage to plant, BROTE","rate 30, 20 DAA",0
same,"damage to plant, BRSNN","rate 30, 20 DAA",0
same,"damage to plant, CHEAL","rate 30, 20 DAA",0
same,"damage to plant, GALAP","rate 30, 20 DAA",0
same,"damage to plant, HORVW","rate 30, 20 DAA",0
same,"damage to plant, KCHSC","rate 30, 20 DAA",0
same,"damage to plant, LOLPE","rate 30, 20 DAA",0
same,"damage to plant, POAAN","rate 30, 20 DAA",0
same,"damage to plant, POLCO","rate 30, 20 DAA",0
same,"damage to plant, SINAR","rate 30, 20 DAA",0
same,"damage to plant, STEME","rate 30, 20 DAA",0
same,"damage to plant, VERPE","rate 30, 20 DAA",0
same,"damage to plant, ALOMY","rate 60, 20 DAA",0
same,"damage to plant, AVEFA","rate 60, 20 DAA",0
same,"damage to plant, BEAVA","rate 60, 20 DAA",0
same,"damage to plant, BROTE","rate 60, 20 DAA",0
same,"damage to plant, BRSNN","rate 60, 20 DAA",0
same,"damage to plant, CHEAL","rate 60, 20 DAA",0
same,"damage to plant, GALAP","rate 60, 20 DAA",0
same,"damage to plant, HORVW","rate 60, 20 DAA",0
same,"damage to plant, KCHSC","rate 60, 20 DAA",0
same,"damage to plant, LOLPE","rate 60, 20 DAA",30
same,"damage to plant, POAAN","rate 60, 20 DAA",0
same,"damage to plant, POLCO","rate 60, 20 DAA",10
same,"damage to plant, SINAR","rate 60, 20 DAA",0
same,"damage to plant, STEME","rate 60, 20 DAA",0
same,"damage to plant, VERPE","rate 60, 20 DAA",0
same,"damage to plant, ALOMY","rate 130, 20 DAA",0
same,"damage to plant, AVEFA","rate 130, 20 DAA",10
same,"damage to plant, BEAVA","rate 130, 20 DAA",0
same,"damage to plant, BROTE","rate 130, 20 DAA",0
same,"damage to plant, BRSNN","rate 130, 20 DAA",0
same,"damage to plant, CHEAL","rate 130, 20 DAA",0
same,"damage to plant, GALAP","rate 130, 20 DAA",0
same,"damage to plant, HORVW","rate 130, 20 DAA",10
same,"damage to plant, KCHSC","rate 130, 20 DAA",0
same,"damage to plant, LOLPE","rate 130, 20 DAA",40
same,"damage to plant, POAAN","rate 130, 20 DAA",20
same,"damage to plant, POLCO","rate 130, 20 DAA",20
same,"damage to plant, SINAR","rate 130, 20 DAA",0
same,"damage to plant, STEME","rate 130, 20 DAA",0
same,"damage to plant, VERPE","rate 130, 20 DAA",0
same,"damage to plant, ALOMY","rate 250, 20 DAA",10
same,"damage to plant, AVEFA","rate 250, 20 DAA",30
same,"damage to plant, BEAVA","rate 250, 20 DAA",0
same,"damage to plant, BROTE","rate 250, 20 DAA",10
same,"damage to plant, BRSNN","rate 250, 20 DAA",0
same,"damage to plant, CHEAL","rate 250, 20 DAA",0
same,"damage to plant, GALAP","rate 250, 20 DAA",0
same,"damage to plant, HORVW","rate 250, 20 DAA",60
same,"damage to plant, KCHSC","rate 250, 20 DAA",0
same,"damage to plant, LOLPE","rate 250, 20 DAA",50
same,"damage to plant, POAAN","rate 250, 20 DAA",80
same,"damage to plant, POLCO","rate 250, 20 DAA",50
same,"damage to plant, SINAR","rate 250, 20 DAA",0
same,"damage to plant, STEME","rate 250, 20 DAA",10
same,"damage to plant, VERPE","rate 250, 20 DAA",0
same,"damage to plant, ALOMY","rate 500, 20 DAA",70
same,"damage to plant, AVEFA","rate 500, 20 DAA",60
same,"damage to plant, BEAVA","rate 500, 20 DAA",10
same,"damage to plant, BROTE","rate 500, 20 DAA",50
same,"damage to plant, BRSNN","rate 500, 20 DAA",10
same,"damage to plant, CHEAL","rate 500, 20 DAA",50
same,"damage to plant, GALAP","rate 500, 20 DAA",0
same,"damage to plant, HORVW","rate 500, 20 DAA",90
same,"damage to plant, KCHSC","rate 500, 20 DAA",0
same,"damage to plant, LOLPE","rate 500, 20 DAA",80
same,"damage to plant, POAAN","rate 500, 20 DAA",80
same,"damage to plant, POLCO","rate 500, 20 DAA",80
same,"damage to plant, SINAR","rate 500, 20 DAA",0
same,"damage to plant, STEME","rate 500, 20 DAA",60
same,"damage to plant, VERPE","rate 500, 20 DAA",20
